# Measurements from paper PMC5777755, “Functional characterization of a unique cytochrome P450 in Toxoplasma gondii” (Oncotarget, 2017).
# Target: T1, Tg-P450 (Toxoplasma gondii, UniProt S8EQL7)
# T1 construct: gene TGME49_315770; P450 knockout as negative control
# Assay: in situ fluorescence microscopy of resorufin formation (rhodamine filter), knockout control
# Format: cell-based
# Details: 1 uM, 24 h, 37 °C; live tachyzoites in HepG2 cells; strain given as Tg-P450 OE in text, GT1 in figure legend
# T1 sequence (S8EQL7 entry or part of it): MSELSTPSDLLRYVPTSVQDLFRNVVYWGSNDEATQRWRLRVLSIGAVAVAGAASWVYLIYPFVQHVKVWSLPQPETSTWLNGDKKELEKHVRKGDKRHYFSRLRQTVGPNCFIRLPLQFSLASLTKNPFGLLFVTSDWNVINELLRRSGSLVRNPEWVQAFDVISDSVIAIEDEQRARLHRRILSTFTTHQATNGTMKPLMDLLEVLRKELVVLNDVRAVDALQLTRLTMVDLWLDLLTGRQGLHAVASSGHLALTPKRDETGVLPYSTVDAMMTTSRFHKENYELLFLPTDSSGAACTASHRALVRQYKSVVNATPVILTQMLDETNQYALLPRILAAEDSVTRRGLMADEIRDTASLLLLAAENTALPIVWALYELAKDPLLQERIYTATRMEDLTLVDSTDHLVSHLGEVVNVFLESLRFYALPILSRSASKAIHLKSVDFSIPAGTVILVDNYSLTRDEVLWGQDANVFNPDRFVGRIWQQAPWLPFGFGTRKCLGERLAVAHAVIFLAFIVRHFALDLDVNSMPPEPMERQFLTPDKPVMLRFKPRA
row,Structure (SMILES),"in situ fluorescence microscopy of resorufin formation (rhodamine filter), knock"
1,"CCCCCOc1ccc2nc3ccc(=O)cc-3oc2c1 [PR, pentoxyresorufin]",a weak specific fluorescence signal was visible in the Tg-P450 OE strain
2,"O=c1ccc2nc3ccc(OCc4ccccc4)cc3oc-2c1 [BR, benzoxyresorufin]","After treating the P450 knockout parasites with PR and BR, no fluorescence was observed"
